The results in this text go back to ChEMBL document CHEMBL5226306, “Intestinal Excretion, Intestinal Recirculation, and Renal Tubule Reabsorption Are Underappreciated Mechanisms That Drive the Distribution and Pharmacokinetic Behavior of Small Molecule Drugs” (J Med Chem, 2021).

A short description of data set [1]: Drug recovery in IV dosed BDC rat feces. Particulars: faeces, read-out: Drug recovery. The data set is classed as ADME, organism-based.
A short description of data set [2]: Total systemic clearance in rat. The data set is classed as ADME. Conditions: in vivo.
Data set [3] is described as follows: Intestinal excretion in iv dosed rat. The data set is classed as ADME, organism-based, Intestine. Conditions: in vivo, read-out: Drug excretion.
Data set [4] can be described thus: Intestinal excretion in iv dosed dog. The data set is classed as ADME, organism-based, Canis lupus familiaris, Intestine. Particulars: in vivo, read-out: Drug excretion.
Data set [5] in a line: Unbound fraction in human plasma. The data set is classed as ADME, cell-free.
Data set [6] can be described thus: Drug excretion in rat bile. The data set is classed as ADME, tissue-based. Conditions: read-out: Drug excretion.
The nature of data set [7]: Oral bioavailability in human. Conditions: in vivo. The data set is classed as ADME, organism-based.
The nature of data set [8]: Volume of distribution in human.
Data set [9] can be described thus: Elimination half life in human.
Data set [10] is described as follows: Total plasma clearance in human assessed as hepatic blood flow. The data set is classed as ADME, cell-free.
Data set [11] in a line: Total plasma clearance in dog assessed as hepatic blood flow. The data set is classed as ADME, cell-free, Canis lupus familiaris.
Data set [12] in a line: Total plasma clearance in rat assessed as hepatic blood flow. The data set is classed as ADME, cell-free.
Data set [13] in a line: Drug excretion in BDC dog urine. The data set is classed as ADME, tissue-based, Canis lupus familiaris.
Data set [14] in a line: Clearance in rat urine. The data set is classed as ADME, tissue-based.
Data set [15] can be described thus: Renal clearance in dog. The data set is classed as ADME, tissue-based, Canis lupus familiaris, Kidney. Conditions: in vivo.
A short description of data set [16]: Renal excretion in rat. The data set is classed as ADME, tissue-based, Kidney. Particulars: in vivo, read-out: Drug excretion (converted).
A short description of data set [17]: Tubular reabsorption in dog. The data set is classed as ADME, Canis lupus familiaris.
Data set [18] is described as follows: Drug elimination in human urine. The data set is classed as ADME, tissue-based. Conditions: read-out: Drug excretion.
A short description of data set [19]: Intestinal clearance in rat. The data set is classed as ADME. Conditions: in vivo.
A short description of data set [20]: Intestinal clearance in dog. The data set is classed as ADME, Canis lupus familiaris. Particulars: in vivo.
Data set [21] is described as follows: Intestinal clearance in human. The data set is classed as ADME.
The nature of data set [22]: in vivo. Particulars: rat, po.
The nature of data set [23]: in vivo. Conditions: rat.
Data set [24] in a line: Clearance in dog bile. Conditions: in vivo. The data set is classed as ADME, tissue-based, Canis lupus familiaris.
Data set [25] in a line: Total systemic clearance in dog. The data set is classed as ADME, Canis lupus familiaris. Conditions: in vivo.

For the compound `COc1ccc(-n2nc(C(N)=O)c3c2C(=O)N(c2ccc(N4CCCC[14C]4=O)cc2)CC3)cc1`, the dose excreted in data set [1], in data set [3] and in data set [4] was 20% in each case. The CL in [2] was 20%.

In the case of `CC(C)(O)[C@H](F)CN1Cc2cc(NC(=O)c3cnn4cccnc34)c(N3CCOCC3)cc2C1=O`, the Fu in [5] was 0.01.

The bioavailability is dose-corrected exposure relative to a reference, in per cent. The Vd is the apparent volume that relates the amount in the body to the concentration in plasma or blood. Read a high Vd as extensive tissue distribution. As usually defined, the half-life is the time in which the quantity being followed falls by half. A high value points to slow loss. One may read the fraction unbound as the share of the substance not bound to proteins or other matrix. The Tmax is the time from dosing to the highest level. In the case of `COc1ccc(-n2nc(C(N)=O)c3c2C(=O)N(c2ccc(N4CCCCC4=O)cc2)CC3)cc1` [APIXABAN], the results for the dose excreted in [6], in [13] and in data set [18] were 10%, 21% and 27%, respectively. In data set [7], this compound registered a bioavailability of 49%. Besides, the Vd in [8] stood at 0.3 L/kg. The same compound had a half-life in [9] of 12 h. Besides, the QH in data set [10], in [11] and in data set [12] was under 5% throughout. Besides, the fraction unbound in data set [5] is 0.07. In addition, the CL renal in data set [14] was 11.8 mL/min/kg; in data set [15] it was 0.333 mL/min/kg; in [16], 0.217 mL/min/kg. In data set [17], the Drug absorption turned out to be 0.483 mL/min/kg. Besides, the CL in data set [19] is recorded as over 20%; in data set [20], over 42%; in data set [21], over 27%. Moreover, in the data set “in vivo [22]”, the time to peak (Tmax) was determined as 2 h.

For the compound `CCOc1ccc(Cc2cc([C@@H]3O[C@H](CO)[C@@H](O)[C@H](O)[C@H]3O)ccc2Cl)cc1` [DAPAGLIFLOZIN], in [5], the fraction unbound amounted to 0.085. The compound further gave a CL renal in “in vivo [23]” of 0.08 mL/min/kg.

In data set [5], `C[C@H]1O[C@@H](O[C@H]2[C@@H](O)C[C@H](O[C@H]3[C@@H](O)C[C@H](O[C@H]4CC[C@@]5(C)[C@H](CC[C@@H]6[C@@H]5C[C@@H](O)[C@]5(C)[C@@H](C7=CC(=O)OC7)CC[C@]65O)C4)O[C@@H]3C)O[C@@H]2C)C[C@H](O)[C@@H]1O` [DIGOXIN] displayed a Fu of 0.2.

As for `O=C1CN(/N=C/c2ccc([N+](=O)[O-])o2)C(=O)N1` [NITROFURANTOIN], the free fraction (fraction unbound) in [5] turned out to be 0.4.

Turning to `CS(=O)(=O)c1ccc(C(=O)Nc2ccc(Cl)c(-c3ccccn3)c2)c(Cl)c1` [VISMODEGIB], the fraction unbound in data set [5] turned out to be 0.01. For the same compound, the CL in data set [24] turned out to be 0.04 mL/min/kg; in [25], 19%.
